Experimental data taken from patent publication US10208089B2, “Modulation of complement activity” (priority 2014, dated 2019).
Starred links: 1 amine or outer side, 2 acyl side, 3 side chain; linkers in the order of their positions; H or OH if unused. Positions of bridges follow the written chain, without caps; N, C: chain ends. Non-standard residues stand in square brackets, D forms with d. Residues, ends and D or L forms follow the SMILES beside them. Ala(1H-tetrazol-5-yl) = N[C@@H](Cc1nnn[nH]1)C(=O)O; Trp(7-aza) = N[C@@H](Cc1c[nH]c2ncccc12)C(=O)O; Phe(3-Cl) = N[C@@H](Cc1cccc(Cl)c1)C(=O)O; mXylylene = c1cc(C[*:1])cc(C[*:2])c1; Phg = N[C@H](C(=O)O)c1ccccc1; Tle = CC(C)(C)[C@H](N)C(=O)O; NMeS = CN[C@@H](CO)C(=O)O; Nva = CCC[C@H](N)C(=O)O

Target: C5 (Homo sapiens, UniProt P01031)
Assay: Human hemolysis assay (RBC lysis assay using complete human sera)
Assay type: cell-based
Set-up: with complete human sera (Complement Technology, Tyler Tex.) and polypeptides; tissue Complement Technology, Tyler Tex; host or cells: complete human serum
Conditions: for ability to inhibit red blood cell lysis compared with the parent polypeptide (in words): variants of R3021, R3002 or R3008
[1] = inhibition of lysis of antibody-sensitized sheep erythrocytes, complete human sera
[2] = 7-azatryptophan variant polypeptides of R3002, inhibition of red blood cell lysis
[3] = variants of R3021 with internal amino acid deletions, inhibition of red blood cell lysis
[4] = 7-azatryptophan variant polypeptides of R3008, inhibition of red blood cell lysis

Sequence of C5 (P01031 19-1676): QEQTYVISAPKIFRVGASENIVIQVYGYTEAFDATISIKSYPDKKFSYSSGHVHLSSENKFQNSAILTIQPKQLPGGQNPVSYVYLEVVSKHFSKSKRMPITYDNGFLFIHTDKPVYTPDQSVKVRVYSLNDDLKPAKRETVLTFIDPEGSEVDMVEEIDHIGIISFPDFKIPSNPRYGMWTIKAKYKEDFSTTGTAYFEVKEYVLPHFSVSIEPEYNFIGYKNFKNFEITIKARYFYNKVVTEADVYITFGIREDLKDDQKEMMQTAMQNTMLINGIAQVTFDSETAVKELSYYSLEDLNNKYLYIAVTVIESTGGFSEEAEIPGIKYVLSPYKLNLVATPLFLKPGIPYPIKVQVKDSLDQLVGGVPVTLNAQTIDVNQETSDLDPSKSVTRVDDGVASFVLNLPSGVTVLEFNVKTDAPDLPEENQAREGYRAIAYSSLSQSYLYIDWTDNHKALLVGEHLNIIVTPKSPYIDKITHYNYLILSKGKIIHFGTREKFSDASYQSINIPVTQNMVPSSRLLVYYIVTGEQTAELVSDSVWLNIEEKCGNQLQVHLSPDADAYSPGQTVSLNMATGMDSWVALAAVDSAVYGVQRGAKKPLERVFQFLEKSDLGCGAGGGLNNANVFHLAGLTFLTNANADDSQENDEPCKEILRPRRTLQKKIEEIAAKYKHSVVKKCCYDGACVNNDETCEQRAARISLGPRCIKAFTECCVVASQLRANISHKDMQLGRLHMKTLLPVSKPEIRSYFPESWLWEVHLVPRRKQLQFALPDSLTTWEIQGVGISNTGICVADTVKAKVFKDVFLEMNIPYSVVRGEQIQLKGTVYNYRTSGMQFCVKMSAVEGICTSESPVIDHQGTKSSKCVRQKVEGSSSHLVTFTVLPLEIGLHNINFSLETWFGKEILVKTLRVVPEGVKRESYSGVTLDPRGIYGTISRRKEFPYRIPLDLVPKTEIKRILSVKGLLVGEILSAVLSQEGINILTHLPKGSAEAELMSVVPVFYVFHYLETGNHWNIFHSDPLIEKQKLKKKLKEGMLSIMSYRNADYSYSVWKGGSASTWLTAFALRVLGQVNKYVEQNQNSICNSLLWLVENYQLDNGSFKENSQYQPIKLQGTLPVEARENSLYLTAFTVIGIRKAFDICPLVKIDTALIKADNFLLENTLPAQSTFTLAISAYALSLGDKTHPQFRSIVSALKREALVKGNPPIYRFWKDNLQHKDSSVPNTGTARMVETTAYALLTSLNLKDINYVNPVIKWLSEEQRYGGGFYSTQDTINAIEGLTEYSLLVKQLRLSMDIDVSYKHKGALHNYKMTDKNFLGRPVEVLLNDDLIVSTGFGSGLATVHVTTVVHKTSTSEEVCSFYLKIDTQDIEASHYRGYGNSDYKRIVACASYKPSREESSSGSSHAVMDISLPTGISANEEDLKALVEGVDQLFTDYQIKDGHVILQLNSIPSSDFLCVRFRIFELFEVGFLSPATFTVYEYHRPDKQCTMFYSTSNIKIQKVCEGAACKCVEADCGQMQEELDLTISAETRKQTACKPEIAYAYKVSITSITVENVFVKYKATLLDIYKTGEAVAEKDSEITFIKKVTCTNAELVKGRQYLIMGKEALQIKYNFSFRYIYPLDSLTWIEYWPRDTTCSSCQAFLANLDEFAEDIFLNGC

Row | Compound | IC50 [1] [µM] | further results
1 | CCC[C@H](NC(=O)[C@@H]1CSCc2cccc(c2)CSC[C@H](NC(=O)[C@H](CCC)NC(=O)[C@H](Cc2ccc(O)cc2)NC(C)=O)C(=O)N[C@@H](c2ccccc2)C(=O)N[C@@H]([C@@H](C)O)C(=O)N[C@@H](Cc2c[nH]c3ncccc23)C(=O)N[C@@H](CCC(=O)O)C(=O)N[C@@H](Cc2ccc(O)cc2)C(=O)N(C)[C@@H](CO)C(=O)N[C@@H](Cc2c[nH]cn2)C(=O)N1)C(N)=O [Compound R3113, [mXylyl(3,11)]Ac-Y-Nvl-C-Phg-T-azaTrp-E-Y-(N-Me)S-H-C-Nvl-NH2] (Ac-Y[Nva]C[Phg]T[Trp(7-aza)]EY[NMeS]HC[Nva]-NH2; linker 3-11 via mXylylene) | > 5 | 
2 | CCC[C@H](NC(=O)[C@@H](NC(=O)[C@@H]1CCCN1C(=O)[C@H](Cc1ccc(O)cc1)NC(=O)[C@H](CCC(=O)O)NC(=O)[C@@H](Cc1c[nH]c2ccccc12)NC(=O)[C@H](Cc1ccc(O)cc1)NC(=O)[C@@H](NC(=O)[C@H](CC(N)=O)NC(=O)[C@H](CCC(=O)O)NC(=O)[C@H](Cc1ccc(O)cc1)NC(C)=O)C(C)(C)C)c1ccccc1)C(N)=O [Compound R3118, Ac-Y-E-N-Tbg-Y-(D-Trp)-E-Y-P-Phg-Nvl-NH2] | > 100 | IC50 [2]: > 100 µM
3 | CCC[C@H](NC(=O)[C@@H](NC(=O)[C@@H]1CCCN1C(=O)[C@H](Cc1ccc(O)cc1)NC(=O)[C@H](CCC(=O)O)NC(=O)[C@@H](Cc1c[nH]c2ccccc12)NC(=O)[C@H](Cc1ccc(O)cc1)NC(=O)[C@H](CC(N)=O)NC(=O)[C@H](CCC(=O)O)NC(=O)[C@H](Cc1ccc(O)cc1)NC(C)=O)c1ccccc1)C(N)=O [Compound R3119, Ac-Y-E-N-Y-(D-Trp)-E-Y-P-Phg-Nvl-NH2] (Ac-YENY[dW]EYP[Phg][Nva]-NH2) | > 100 | IC50 [2]: > 100 µM
4 | CC(=O)N[C@H]1CSCc2cccc(c2)CSC[C@@H](C(=O)N[C@H](C(=O)N[C@@H](Cc2ccc(O)cc2)C(=O)N[C@@H](Cc2c[nH]c3ccccc23)C(=O)N[C@@H](CCC(=O)O)C(=O)N[C@@H](Cc2ccccc2)C(N)=O)C(C)C)NC(=O)[C@H](Cc2ccccc2)NC(=O)[C@H](CCCNC(=N)N)NC(=O)[C@H](CCC(=O)O)NC(=O)[C@H](C(C)C)NC1=O [Compound R3124, [mXylyl(1,6)]Ac-C-V-E-R-F-C-V-Y-W-E-F-NH2] (Ac-CVERFCVYWEF-NH2; linker 1-6 via mXylylene) | > 100 | ability to inhibit red blood cell lysis compared with the parent polypeptide (in words): decrease in the ability; IC50 [3]: > 100 µM
5 | CC(=O)N[C@H]1CSCc2cccc(c2)CSC[C@@H](C(=O)N[C@@H](Cc2c[nH]c3ccccc23)C(=O)N[C@@H](CCC(=O)O)C(=O)N[C@@H](Cc2ccccc2)C(N)=O)NC(=O)[C@H](Cc2ccccc2)NC(=O)[C@H](CCCNC(=N)N)NC(=O)[C@H](CCC(=O)O)NC(=O)[C@H](C(C)C)NC1=O [Compound R3125, [mXylyl(1,6)]Ac-C-V-E-R-F-C-W-E-F-NH2] (Ac-CVERFCWEF-NH2; linker 1-6 via mXylylene) | > 100 | ability to inhibit red blood cell lysis compared with the parent polypeptide (in words): decrease in the ability; IC50 [3]: > 100 µM
6 | CCC[C@H](NC(C)=O)C(=O)N[C@@H](CS)C(=O)N[C@@H](Cc1ccc(O)cc1)C(=O)N[C@@H](CC(N)=O)C(=O)N[C@@H](CC(N)=O)C(=O)N[C@H](C(=O)N[C@@H](CCC(=O)O)C(=O)N[C@@H](Cc1c[nH]c2ncccc12)C(=O)N[C@@H](CCC(=O)O)C(=O)N[C@@H](CS)C(=O)N1CCC[C@H]1C(=O)N[C@H](C(=O)N[C@H](C(N)=O)C(C)(C)C)c1ccccc1)C(C)(C)C [Compound R3126, Ac-Nvl-C-Y-N-N-Tbg-E-azaTrp-E-C-P-Phg-Tbg-NH2] (Ac-[Nva]CYNN[Tle]E[Trp(7-aza)]ECP[Phg][Tle]-NH2) | > 3 | 
7 | CCC[C@H](NC(C)=O)C(=O)N[C@H]1CSCc2cccc(c2)CSC[C@@H](C(=O)N2CCC[C@H]2C(=O)N[C@H](C(=O)N[C@H](C(N)=O)C(C)(C)C)c2ccccc2)NC(=O)[C@H](CCC(=O)O)NC(=O)[C@H](Cc2c[nH]c3ncccc23)NC(=O)[C@H](CCC(=O)O)NC(=O)[C@H](C(C)(C)C)NC(=O)[C@H](CC(N)=O)NC(=O)[C@H](CC(N)=O)NC(=O)[C@H](Cc2ccc(O)cc2)NC1=O [Compound R3127, [mXylyl(2,10)]Ac-Nvl-C-Y-N-N-Tbg-E-azaTrp-E-C-P-Pha-Tbg-NH2] (Ac-[Nva]CYNN[Tle]E[Trp(7-aza)]ECP[Phg][Tle]-NH2; linker 2-10 via mXylylene) | > 75 | 
8 | CCC[C@H](NC(C)=O)C(=O)N[C@@H](CS)C(=O)N[C@@H](Cc1ccc(O)cc1)C(=O)N[C@@H](CC(N)=O)C(=O)N[C@@H](CC(N)=O)C(=O)N[C@H](C(=O)N[C@@H](CCC(=O)O)C(=O)N[C@@H](CS)C(=O)N[C@@H](CCC(=O)O)C(=O)N[C@@H](Cc1ccc(O)cc1)C(=O)N1CCC[C@H]1C(=O)N[C@H](C(=O)N[C@H](C(N)=O)C(C)(C)C)c1ccccc1)C(C)(C)C [Compound R3128, Ac-Nvl-C-Y-N-N-Tbg-E-C-E-Y-P-Phg-Tbg-NH2] (Ac-[Nva]CYNN[Tle]ECEYP[Phg][Tle]-NH2) | > 100 | IC50 [2]: > 100 µM
9 | CCC[C@H](NC(C)=O)C(=O)N[C@H]1CSCc2cccc(c2)CSC[C@@H](C(=O)N[C@@H](CCC(=O)O)C(=O)N[C@@H](Cc2ccc(O)cc2)C(=O)N2CCC[C@H]2C(=O)N[C@H](C(=O)N[C@H](C(N)=O)C(C)(C)C)c2ccccc2)NC(=O)[C@H](CCC(=O)O)NC(=O)[C@H](C(C)(C)C)NC(=O)[C@H](CC(N)=O)NC(=O)[C@H](CC(N)=O)NC(=O)[C@H](Cc2ccc(O)cc2)NC1=O [Compound R3129, [mXylyl(2,8)]Ac-Nvl-C-Y-N-N-Tbg-E-C-E-Y-P-Phg-Tbg-NH2] (Ac-[Nva]CYNN[Tle]ECEYP[Phg][Tle]-NH2; linker 2-8 via mXylylene) | > 100 | IC50 [2]: > 100 µM
10 | CCC[C@H](NC(=O)[C@@H]1CSCc2cccc(c2)CSC[C@H](NC(=O)[C@H](CCC)NC(C)=O)C(=O)N[C@@H](c2ccccc2)C(=O)N[C@@H]([C@@H](C)O)C(=O)N[C@@H](Cc2c[nH]c3ccccc23)C(=O)N[C@@H](Cc2nnn[nH]2)C(=O)N[C@@H](Cc2ccc(O)cc2)C(=O)N(C)[C@@H](CO)C(=O)N[C@@H](Cc2c[nH]cn2)C(=O)N1)C(N)=O [Compound R3131, [mXylyl(2,10)]Ac-Nvl-C-Phg-T-W-Asp(T)-Y-(N-Me)S-H-C-Nvl-NH2] (Ac-[Nva]C[Phg]TW[Ala(1H-tetrazol-5-yl)]Y[NMeS]HC[Nva]-NH2; linker 2-10 via mXylylene) | > 100 | IC50 [4]: > 100 µM
11 | CCC[C@H](NC(=O)[C@@H]1CSCc2cccc(c2)CSC[C@H](NC(=O)[C@H](CCC)NC(C)=O)C(=O)N[C@@H](c2ccccc2)C(=O)N[C@@H]([C@@H](C)O)C(=O)N[C@H](Cc2c[nH]c3ccccc23)C(=O)N[C@@H](CCC(=O)O)C(=O)N[C@@H](Cc2ccc(O)cc2)C(=O)N(C)[C@@H](CO)C(=O)N[C@@H](Cc2c[nH]cn2)C(=O)N1)C(N)=O [Compound R3132, [mXylyl(2,10)]Ac-Nvl-C-Phg-T-(D-Trp)-E-Y-(N-Me)S-H-C-Nvl-NH2] (Ac-[Nva]C[Phg]T[dW]EY[NMeS]HC[Nva]-NH2; linker 2-10 via mXylylene) | > 100 | IC50 [4]: > 100 µM
12 | CCC[C@H](NC(=O)[C@@H]1CSCc2cccc(c2)CSC[C@H](NC(=O)[C@H](CCC)NC(C)=O)C(=O)N[C@@H](c2ccccc2)C(=O)N[C@H](C)C(=O)N[C@@H](Cc2c[nH]c3ncccc23)C(=O)N[C@@H](CCC(=O)O)C(=O)N[C@@H](Cc2ccc(O)cc2)C(=O)N(C)[C@@H](CO)C(=O)N[C@@H](Cc2c[nH]cn2)C(=O)N1)C(N)=O [Compound R3133, [mXylyl(2,10)]Ac-Nvl-C-Phg-(D-Ala)-azaTrp-E-Y-(N-Me)S-H-C-Nvl-NH2] (Ac-[Nva]C[Phg][dA][Trp(7-aza)]EY[NMeS]HC[Nva]-NH2; linker 2-10 via mXylylene) | > 75 | 
13 | CCC[C@H](NC(=O)[C@@H]1CSCc2cccc(c2)CSC[C@H](NC(=O)[C@H](CCC)NC(C)=O)C(=O)N[C@@H](c2ccccc2)C(=O)N[C@@H]([C@@H](C)O)C(=O)N[C@@H](Cc2c[nH]c3ncccc23)C(=O)N[C@@H](CCC(=O)O)C(=O)N[C@@H](Cc2cccc(Cl)c2)C(=O)N(C)[C@@H](CO)C(=O)N[C@@H](C)C(=O)N1)C(N)=O [Compound R3134, [mXylyl(2,10)]Ac-Nvl-C-Phg-T-azaTrp-E-(3-Cl-Phe)-(N-Me)S-A-C-Nvl-NH2] (Ac-[Nva]C[Phg]T[Trp(7-aza)]E[Phe(3-Cl)][NMeS]AC[Nva]-NH2; linker 2-10 via mXylylene) | > 5 | 
14 | CCC[C@H](NC(=O)[C@@H]1CSCc2cccc(c2)CSC[C@H](NC(=O)[C@H](CCC)NC(C)=O)C(=O)N[C@@H](c2ccccc2)C(=O)N[C@@H]([C@@H](C)O)C(=O)N[C@@H](Cc2c[nH]c3ncccc23)C(=O)N[C@@H](CCC(=O)O)C(=O)N[C@@H](Cc2ccc(O)cc2)C(=O)N(C)[C@@H](CO)C(=O)N[C@H](C)C(=O)N1)C(N)=O [Compound R3135, [mXylyl(2,10)]Ac-Nvl-C-Phg-T-azaTrp-E-Y-(N-Me)S-(D-Ala)-C-Nvl-NH2] (Ac-[Nva]C[Phg]T[Trp(7-aza)]EY[NMeS][dA]C[Nva]-NH2; linker 2-10 via mXylylene) | > 25 | 
15 | CC(=O)N[C@H]1CSCc2cccc(c2)CSC[C@@H](C(=O)N[C@@H](CC(=O)O)C(=O)N[C@H](C(=O)N[C@@H](Cc2ccc(O)cc2)C(=O)N[C@@H](Cc2c[nH]c3ccccc23)C(=O)N[C@@H](CCC(=O)O)C(=O)N[C@@H](Cc2ccccc2)C(N)=O)C(C)(C)C)NC(=O)[C@H](Cc2ccccc2)NC(=O)[C@H](CCCNC(=N)N)NC(=O)[C@H](CCC(=O)O)NC(=O)[C@H](C(C)C)NC1=O [Compound R3138, [mXylyl(1,6)]Ac-C-V-E-R-F-C-D-Tbg-Y-W-E-F-NH2] (Ac-CVERFCD[Tle]YWEF-NH2; linker 1-6 via mXylylene) | 0.0872 | 
